# Peptide text beside a SMILES is read from it.
# Tests used:
# [1] = test system: H1N1 PR8/54; assay type: in vivo, mice
# [2] = biological target: T1, sestrin-AMPK interaction (Homo sapiens, UniProt P58004); assay: ELISA coupled to sestrin 2 immunoprecipitation; assay type: cell-based
# T1 construct: endogenous in cells; host or cells: primary CD4+ T cells from PBMCs of healthy donors
# T1 sequence (P58004 1-480): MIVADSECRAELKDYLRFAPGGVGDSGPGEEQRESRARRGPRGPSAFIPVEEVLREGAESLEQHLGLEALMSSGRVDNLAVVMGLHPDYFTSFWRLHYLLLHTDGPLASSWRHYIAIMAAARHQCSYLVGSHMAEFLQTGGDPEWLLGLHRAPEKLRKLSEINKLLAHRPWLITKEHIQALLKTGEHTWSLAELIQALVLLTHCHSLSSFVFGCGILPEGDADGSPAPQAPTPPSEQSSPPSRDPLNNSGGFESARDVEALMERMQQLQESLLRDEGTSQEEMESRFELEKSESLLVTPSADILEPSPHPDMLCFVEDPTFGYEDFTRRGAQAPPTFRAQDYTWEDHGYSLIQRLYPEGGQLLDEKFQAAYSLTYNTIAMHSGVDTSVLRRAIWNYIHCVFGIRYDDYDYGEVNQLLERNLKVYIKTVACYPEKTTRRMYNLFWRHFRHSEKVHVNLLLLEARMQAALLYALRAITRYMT
# Protocol: FIG. 6 illustrates sMAC disruption by DOS46L. (A) CD4+ T cells were purified from PBMCs from healthy donors and treated with DOS46L (10 uM) for the indicated time points. The binding of AMPK to Sestrin 2 was quantified against the total level of Sestrin 2 immunoprecipitated and detected by ELISA. IgG immunoprecipitates served as background control. (B) Cells were pre-treated with proteasome-inhibitor MG-132 (10 uM) for 30 min and subsequently treated with DOS46L (10 uM) for 4 hours. Cells were harvested for immunoblot analysis or proceeded to immunoprecipitation. Levels of Sestrin 2, p38, and AMPK were evaluated by immunoblotting. H3 was used as a loading control. Representative images of 3 experiments are shown. (C) Immunoblot levels of Ubiquitin, Sestrin 2 and Histone 3 in Sestrin 2 immunoprecipitates and their lysates were analysed. Representative images are shown (top). The mean values (bottom) of ubiquitinated proteins in Sestrin 2 immunoprecipitates are shown. Results are presented as a mean±SD of 4 repeated experiments. Student's T-test was used to analyse the data. **p<0.01
# • 1. Cell pellet was lysed with 100 μL of denaturing lysis buffer • 2. Then mixed well by vortexing vigorously for 2-3 sec at maximum speed. • 3. Samples were then boiled at 95° C. for 5 min. • 4. Samples were then diluted 900 μl of non-denaturing lysis buffer and mixed gently. • 5. […]
# [3] = test system: sMAC signalling (sestrin 1, 2 and 3 expression, AMPK and MAPK phosphorylation); assay: Immunoblot of sMAC signalling in CD4+ T cells treated with DOS compounds (heat-map); assay type: cell-based, human
# Protocol: CD4+ T cells were isolated from PBMCs from healthy donors, treated with DOS compounds for 4 hours and harvested for immunoblot analysis. The heat-map of Sestrin 1, Sestrin 2, Sestrin 3, p-mTOR1, p-JNK, p-AMPK, p-ERK1/2, and p-p38, represents the mean of three to nine experiments. Histone 3 was used as a control.
# • 1. CD4+ cells were separated from PBMC using appropriate microbeads kit (Miltenyi) • 2. Cells were resuspended in whole RPMI medium and plated in the 24-multiwell plate • 3. Then activated for 4 hrs with DOS compounds • 4. Cells were then harvested, washed with PBS and resuspended in lysis buffer (RIPA with […]) • 5. The cell-lysis mix was incubated for 20 mins on ice • 6. Samples were centrifuged for 20 mins at the max speed • 7. The supernatant was collected and Lemmli buffer+β-Mercaptoethanol was added • 8. Samples were then boiled for 5 mins at 95° C. • 9. Samples were loaded on the polyacrylamide gel and left to run in TRIS-Glycine-SDS running buffer • 10. Once the run was completed the proteins were transferred from the gel to the nitrocellulose membrane by using the Trans-Blot machine (Biorad) • 11. Membrane was washed with 0.1% Tween-TBS buffer and blocked in 5% non-fat milk for 1 hr • 12. Followed incubation with the primary antibody o.n. • 13. The day after, the membrane was washed with 0.1% Tween-TBS buffer for three times for at least 30 mins each • 14. Secondary antibody was then added for 1h • 15. The membrane was the washed with 0.1% Tween-TBS buffer for three times for at least 30 mins each • 16. The signal was developed using ECL solution
# This was shown by downregulation of sestrin 1, 2 and 3 expression, and AMPK and MAPK phosphorylation.
smiles,measurement,setting,value
CC[C@H](C)[C@@H]1NC(=O)[C@H](Cc2ccccc2)NC(=O)[C@H](C)NC(=O)[C@H](C(C)C)NC(=O)[C@@H]2CCCN2C1=O [DOS46L] (cyclo(AFIPV)),relative effectiveness at low dose,[1]; 0.1. mg/Kg,more effective at a very low dose
same,"survival data, comparison of compounds","[1]; old mice, vaccination with DOS, H1N1 PR8/54",similar
same,binding of AMPK to Sestrin 2,"[2]; CD4+ T cells, 10 uM, 1 or 2 hours of treatment",decreased
same,sestrin-AMPK interaction,[2]; compound added directly to the sestrin immunoprecipitates in vitro,disrupted
same,effectiveness at sMAC inactivation among all of the DOS compounds tested,[3],most effective
same,sMAC pathway silenced,[3],90%
same,sestrins inhibited (pan or selective inhibitor),"[3]; CD4+ T cells, 4 hours, FIG. 5 heat-map",inhibit all three sestrins

# Source: patent publication US20250066423A1, “SESTRIN-MAPK COMPLEX INHIBITORS” (Sentcell Ltd, priority 2021, published 2025)
